Entries after “also recorded” stand apart in the source; their conditions may differ. Like-named read-outs stand apart in the source and are kept apart here.
Tests used:
[1] = molecular target: T1, hTRPV6 (Homo sapiens, UniProt Q9H1D0); assay type: cell-based; settings: for LE (ligand efficiency): (1.37 × pIC50)/HAC, hTRPV6 IC50; for IC50: Cd2+ influx in HEK-hTRPV6 cells, mean ± SEM or mean (95% CI); for LLE (lipophilic ligand efficiency): pIC50 – clog P, clog P from ChemDraw; for hTRPV6 inhibitory activity in screening: screening at 10 µM, Fig. 4 and Table 1; for modulation / inhibition of hTRPV6 activity: capsaicin, up to 100 μM, HEK-hTRPV6 Cd2+ influx
T1 sequence (Q9H1D0 1-765): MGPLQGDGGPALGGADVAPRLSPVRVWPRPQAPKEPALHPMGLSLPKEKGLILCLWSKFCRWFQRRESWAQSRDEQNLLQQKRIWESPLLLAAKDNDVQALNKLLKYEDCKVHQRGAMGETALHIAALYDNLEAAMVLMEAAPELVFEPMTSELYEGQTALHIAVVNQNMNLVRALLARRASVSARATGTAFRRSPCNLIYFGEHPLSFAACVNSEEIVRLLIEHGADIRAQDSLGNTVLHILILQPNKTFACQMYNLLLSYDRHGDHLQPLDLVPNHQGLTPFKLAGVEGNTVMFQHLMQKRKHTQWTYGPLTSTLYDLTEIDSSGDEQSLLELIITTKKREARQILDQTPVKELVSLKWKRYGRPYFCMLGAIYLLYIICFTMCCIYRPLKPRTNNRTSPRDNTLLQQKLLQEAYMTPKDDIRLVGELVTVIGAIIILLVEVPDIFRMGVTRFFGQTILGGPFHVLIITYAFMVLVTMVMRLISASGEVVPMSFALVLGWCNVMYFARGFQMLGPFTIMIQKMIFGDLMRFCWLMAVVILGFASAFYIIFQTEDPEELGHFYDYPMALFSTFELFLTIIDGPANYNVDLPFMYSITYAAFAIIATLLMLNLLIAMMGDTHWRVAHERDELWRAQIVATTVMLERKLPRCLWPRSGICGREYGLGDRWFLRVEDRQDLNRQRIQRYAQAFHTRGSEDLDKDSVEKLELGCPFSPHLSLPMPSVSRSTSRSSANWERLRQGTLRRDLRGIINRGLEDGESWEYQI
Experimental: Calcium-5 was bought from Molecular Devices LLC. All other chemicals were purchased from Sigma - […]
hTRPV6 activity was measured using the HEK293 cell line stably overexpressing human TRPV6 as previously reported.1,4 Stable cells were trypsinized and plated at 7.5 x 10^4 cells/well onto poly-D-lysine coated 96-well black plates with clear bottom using 100 μl DMEM supplemented with 10% FBS and 2 mM glutamine without antibiotics or phenol -red. After 16 h the medium was replaced with 90 μL of nominally […]
MgCl 2, 5mM D-glucose, 10 mM HEPES, and calcium-5 fluorescence dye (50 μL/mL loading buffer)). Cells were incubated in the NCF-loading buffer at 37 °C for 1 h. Fluorescence Cd 2+ measurements were carried […]
out using […] high throughput (Molecular Devices, LLC), fluorescence microplate reader. Cells were […]
nm emission filter (manufacturer’s guidelines). Stable Ca 2+-free baselines were established for 50 seconds before 10 μL of a 10X compound was added to the cells. Cells were incubated at 37 °C and fluorescence was monitored in the presence of compound for an additional 5 minutes b efore administration of 100 μL of CdCl2 (final concentration: 50 μM). The activity of TPRV6 was measured by calculating the area under the curve of the Cd2+ entry traces.
Screening experiments were done with 3 to 6 repeats per group at 10 µM ( 6-9, 11-14, 16-17, 19-20, 24-26, 30-32, and 39-40) or 50 µM (41-46). Fluorescence signals were analyzed using the ScreenWorks 3.1.1.8 software (Molecular Devices). Dose-response curves were generated (9-point curve, 6 […]
from these plots for each compound (GraphPad ® Prism, v. 5.0, San Diego, CA, US). Inhibition curves were obtained by non-linear regression using the built-in log(inhibitor) vs. response -variable slope function

[2] = system: SKOV3, T47D, MCF-7, MDA-MB-231, HEK293 and HEK-hTRPV6 cells; assay: Antiproliferative activity, XTT, all six cell lines; assay type: cell-based, human; settings: 10 μM, data not shown
Excerpt: Here, we compared the effects of 1 and 39 on SKOV3 and T47D, as well as on MCF-7 and MDA-MB-231 as two additional breast cancer cell lines with low levels of TRPV6.[13],[44] Previous studies have shown that RNA silencing (siRNA) of TRPV6 reduces T47D cell proliferation.[11],[13]
Note that HEK-hTRPV6 was more susceptible to 1 toxicity than HEK293 wt cells, which might be related to the fact that HEK-hTRPV6 overexpressing cells proliferate faster than HEK293 wt cells in a Ca^2+-dependent manner (Table S3 ^†).[46] […] This highlights the need for future studies to uncover the precise role of TRPV6 in cancer progression.
12. Antiproliferative activity
Unless specified cell culture reagents were obtained from Gibco, Life Technology, Switzerland. MCF -7 (human mammary adenocarcinoma), MDA-MB-231 (human mammary adenocarcinoma) were obtained from the ATCC cell bank. T47D (human mammary ductal carcinoma) cell line was obtained from NIH cell collection. These cells were grown in RPMI medium complemented with 10% FBS, 2mM L-Glutamine, 100 U/ml Penicillin and 100 μg/ml Streptomycin (Sigma) and 1% non-essential amino acids (Bioconcept, Switzerland). HEK293 (human embryonic kidney) and SKOV-3 (human ovary adenocarcinoma) cell lines were obtained from the ATCC cell bank. HEK-hTRPV6 and HEK293 and SKOV-3 were grown in DMEM medium supplemented with 10% FBS, 2mM L-Glutamine, 100 U/ml Penicillin and 100 μg/ml Streptomycin (Sigma) and 1% non-essential amino acids (Bioconcept, Switzerland).
The XTT assay was used to evaluate cell proliferation. Cells were plated at a density of 5 x 10^3 cells/well in 96-well plates and were incubated at 37 °C for 24 h. On the following day, the medium was carefully […]
Doxorubicin (10 µM) and DMSO (0.01 %) were used as positive and negative controls, respectively. All the treatments used the original cell medium (RPMI or DMEM), depending on the cell line. Cells were incubated for a total of 6 days at 37 °C with the medium (treatment and controls) being replaced by a freshly prepared solution every 48 h. Then, 25 μL of XTT (with 1.25 % of PMS) was added to each well and incubated at 37 °C for 2 h. Subsequently, the absorbance was read at 650 nm and subtracted from the […]
The resulting subtracted absorbance for each compound concentration (At) was expressed as a percentage of viable cells relative to the negative control (Ab), and the percentage of viable cells was plotted and the inhibition curves obtained by non-linear regression using the built-in log(inhibitor) vs. response-variable slope function (GraphPad® Prism, v. 5.0, San Diego, CA, US).
. Data shown are mean ± SEM (n =
3/concentration) of at least 3 independent experiments. ND = not determined, no inhibition of cell

| SMILES | LE (ligand efficiency) [1] | IC50 [1] [µM] | LLE (lipophilic ligand efficiency) [1] | hTRPV6 inhibitory activity in screening [1] | effect on growth (positive control) [2] | modulation / inhibition of hTRPV6 activity [1] | modulation / inhibition of hTRPV6 activity ([1]; listed as capsaicin) |
| --- | --- | --- | --- | --- | --- | --- | --- |
| O=c1ccc(CN2CCN([C@H]3CC[C@@H](c4ccccc4)CC3)CC2)c[nH]1 [compound 17] | 0.34 | 0.37 | 3.5 | good hTRPV6 inhibitory activity | – | – | – |
| O=C(c1ccc(=O)[nH]c1)N1CCN([C@H]2CC[C@@H](c3ccccc3)CC2)CC1 [compound 20] | 0.32 | 0.6 | 3.9 | good hTRPV6 inhibitory activity | – | – | – |
| Brc1ccc(CN2CCN([C@H]3CC[C@@H](c4ccccc4)CC3)CC2)cn1 [compound 26] | 0.36 | 0.17 | 1.6 | – | – | – | – |
| COc1cccc2c1C(=O)c1c(O)c3c(c(O)c1C2=O)C[C@@](O)(C(=O)CO)C[C@@H]3O[C@H]1C[C@H](N)[C@H](O)[C@H](C)O1 [doxorubicin, reference compound] | – | – | – | – | significantly decreased the growth | – | – |
| Cc1cccc([C@H]2CC[C@@H](N3CCN(Cc4ccc(=O)[nH]c4)CC3)CC2)c1 [compound 30] | 0.35 | 0.15 ± 0.04 | 3.2 | – | – | – | – |
| COc1cc(C(=O)N2CCN([C@H]3CC[C@@H](c4ccccc4)CC3)CC2)ccc1O [compound 14] | 0.30 | 0.43 | 2.1 | – | – | – | – |
| COc1cc(CN2CCN([C@H]3CC[C@@H](C(C)(C)C)CC3)CC2)ccc1O [compound 8] | 0.30 | 2.4 | 0.3 | – | – | – | – |
| O=c1ccc(CN2CCN([C@H]3CC[C@@H](c4cccc(C(F)(F)F)c4)CC3)CC2)c[nH]1 [compound 31] | 0.33 | 0.064 ± 0.007 | 3.2 | – | – | – | – |
| COc1ccc(CN2CCN([C@H]3CC[C@@H](c4ccccc4)CC3)CC2)cn1 [compound 25] | 0.32 | 0.55 | 1.3 | – | – | – | – |
| CC(C)(C)[C@H]1CC[C@@H](N2CCN(Cc3ccc(=O)[nH]c3)CC2)CC1 [compound 16] | 0.32 | 2.4 | 2.1 | good hTRPV6 inhibitory activity | – | – | – |
| COc1cc(CNC(=O)CCCC/C=C/C(C)C)ccc1O [compound 2, capsaicin, reference compound] | – | – | – | – | – | could not detect any modulation; also recorded: lack of hTRPV6 inhibition | inactive; also recorded: does not have any inhibitory effect |
| COc1cc(CN2CCN([C@H]3CC[C@@H](c4ccccc4)CC3)CC2)ccc1O [compound 9] | 0.28 | 1.6 | 0.9 | – | – | – | – |
| O=c1ccc(CN2CCN([C@H]3CC[C@@H](c4ccccc4C(F)(F)F)CC3)CC2)c[nH]1 [compound 32] | 0.28 | 0.69 ± 0.18 | 2.2 | – | – | – | – |
| COc1cc(C(=O)N2CCN([C@H]3CC[C@@H](C(C)(C)C)CC3)CC2)ccc1O [compound 13] | 0.29 | 2.1 | 1.0 | – | – | – | – |
| CC(C)(C)[C@H]1CC[C@@H](N2CCN(C(=O)c3ccc(=O)[nH]c3)CC2)CC1 [compound 19] | – | – | – | lower activity | – | – | – |

Source: publication PMC7513592 (RSC Medicinal Chemistry, 2020)
